Patent US8501911B2, “Methods of reducing inflammation and mucus hypersecretion” (Biomarck Pharmaceuticals, Ltd, priority 1999, dated 2013)
Values joined by “and” are separate entries in the source; they are usually repeats but may differ in a detail not shown here. Identical values can stand only once. Like-named read-outs stand apart in the source and are kept apart here. Residues, ends and D or L forms follow the SMILES beside them. *: point of attachment. Myristoyl = CCCCCCCCCCCCCC(=O)*

How the values were obtained:
NHBE cells [1] = assay: UTP-induced mucin secretion from NHBE cells (ELISA); assay type: cell-based, human; details: for activity at 100 µM: Homo sapiens, NHBE
Description: In Results-I-1D, NHBE cells were preincubated with the indicated inhibitor for 15 min and then stimulated with 100 μM UTP for 2 h. Secreted mucin in response to the treatment was collected and assayed by ELISA. Data are presented as mean±S.E. (n=6 at each point).
UTP is a well defined pathophysiologically relevant mucin secretagogue. Lethem ct al., Am. J. Respir. Cell Mol. Biol. 9, 315-322 (1993). […] To determine whether PKC and PKG were involved in regulation of mucin secretion in response to a pathophysiological stimulus, effects of PKC/PKG inhibitors on UTP-induced mucin secretion were investigated. NHBE cells were preincubated with various inhibitors for 15 min and then exposed to UTP (100 μM) plus the inhibitor for 2 h. The secreted mucin was measured by ELISA. […] Apparently, mucin secretion in NHBE cells may be regulated by a signaling mechanism involving both PKC and PKG.
(§1) Peptide Blocking Studies—NHBE cells were preincubated with either the MANS or the RNS peptide (1-100 μM) for 15 min, and then PMA (100 nM)+8-Br-cGMP (1 μM) or UTP (100 μM) was added, and cells were incubated for an additional 15 min or 2 h. respectively. Mucin secretion was measured by ELISA and experimental results are designated as Results-I-2B-1 and Results-I-2B-2, as follows.
PP2A is an essential component of the mucin secretory pathway. NHBE cells were preincubated with the indicated concentration of fostriecin, okadaic acid (500 nM), or medium alone for 15 min and then stimulated with PMA (100 nM)+8-Br-cGMP (1 μM) for 15 min or with UTP (100 μM) for 2 h. Secreted mucin was measured by ELISA. […] Thus, dephosphorylation of MARCKS by a PKG-activated PP2A appears to be an essential component of the signaling pathway leading to mucin granule exocytosis.
(§2) Measurement of Mucin Secretion by ELISA—Before collection of “base line” and “test” mucin samples, the accumulated mucus at the apical surface of the cells was removed by washing with phosphate-buffered saline, pH 7.2. To collect the base-line secretion, cells were incubated with medium alone, and secreted mucin in the apical medium was collected and reserved. Cells were rested for 24 h and then exposed to medium containing the selected stimulatory and/or inhibitory reagents (or appropriate controls), after which secreted mucin was collected and reserved as the test sample. Incubation times for the base line and the test were the same but varied depending on the test reagent utilized. Both base line and test secretions were analyzed by ELISA using an antibody capture method as known in the art. See, e.g., Harlow et al., Antibodies: A Laboratory Manual, pp. 570-573, Cold Spring Harbor Laboratory, Cold Spring Harbor, N.Y. (1988). The primary antibody for this assay was 17Q2 (Babco, Richmond, Calif.), a monoclonal antibody that reacts specifically with a carbohydrate epitope on human airway mucins. The ratio of test/base-line mucin, which is similar to a “secretory index”, was used to quantify mucin secretion, allowing each culture dish to serve as its own control and thus, minimizing deviation caused by variability among culture wells. Wright et al., Am. J. Physiol. 271, L854-L861 (1996). Levels of mucin secretion were reported as percentage of the medium control.
These experiments were carried out similarly to those described in Example 7. To test for stimulated secretion, the cells were exposed apically and basolaterally to uridine 5′-triphosphate (UTP) at a concentration of 0.1 mM in media. Cells were pre-incubated for 15 minutes with the MANS peptide and test cultures were then co-incubated with the MANS peptide and UTP for 45 minutes.
NHBE cells were pre-incubated with okadaic acid (500 nM) for 15 min at 37° C./5% CO2, then stimulated with PMA (100 nM)+8-Br-cGMP (1 μM) for 15 min, or with UTP (0.1 mM) for 2 hours. Secreted mucin in the apical medium was collected and assayed by ELISA. […]

NHBE cells [2] = assay: PMA+8-Br-cGMP-induced mucin secretion from NHBE cells (ELISA); assay type: cell-based, human; details: inhibitor 500 nM, 15 min preincubation, then PMA 100 nM+8-Br-cGMP 1 μM 15 min
Description: as §1, with “follows. […]” for “follows.”
as §2
MARCKS-related Peptides—Both the myristoylated N-terminal sequence (MANS) and the random N-terminal sequence (RNS) peptides were synthesized at Genemed Synthesis, Inc. (San Francisco, Calif.), then purified by high pressure liquid chromatography (>95% pure), and confirmed by mass spectroscopy with each showing one single peak with an appropriate molecular mass. The MANS peptide consisted of sequence identical to the first 24 amino acids of MARCKS, i.e. the myristoylated N-terminal region that mediates MARCKS insertion into membranes, MA-[…] (SEQ ID NO: 1) (where MA=N-terminal myristate chain). The corresponding control peptide (RNS) contained the same amino acid composition as the MANS but arranged in random order, MA-[…] (SEQ ID NO: 26). The presence of the hydrophobic myristate moiety in these synthetic peptides enhances their permeability to the plasma membranes, enabling the peptides to be taken up readily by cells. To determine the effects of these peptides on mucin secretion, cells were preincubated with the peptides for 15 min prior to addition of secretagogues, and mucin secretion was then measured by ELISA.
Antisense Oligonucleotides—MARCKS antisense oligonucleotide and its corresponding control oligonucleotide were synthesized at Biognostik GmbH (Gottingen, Germany). NHBE cells were treated with 5 μM antisense or control oligonucleotide apically for 3 days (in the presence of 2 μg/ml lipofectin for the first 24 h). Cells were then incubated with secretagogues, and mucin secretion was measured by ELISA. Total RNA and protein were isolated from treated cells. MARCKS mRNA was assessed by Northern hybridization according to conventional procedures using human MARCKS cDNA as a probe. MARCKS protein level was determined by Western blot using purified anti-MARCKS IgG1 (clone 2F12) as the primary detection antibody.
The effect on mucus secretion of a myristoylated peptide containing the first 24 amino acids of the human MARCKS protein (MANS; myristoylated N-terminal sequence; SEQ ID NO: ) was tested. Cultured normal human bronchial epithelial cells as described above were used. […]

human neutrophils = assay: Human neutrophil chemotactic migration assay; assay type: cell-based; details: test peptide 50 μM; fMLP 100 nM; 0 = inactive
Description: Human neutrophils were isolated from heparinized whole blood collected from healthy adult donors via cephalic venipuncture by a slightly modified method as described by Akasaki et al., 1999 (Akasaki T, Koga H, and Sumimoto H., Phosphoinositide 3-kinase-dependent and -independent activation of the small GTPase Rac2 in human neutrophils, J. Biol. Chem. 274:18055-18059, 1999). The blood was mixed with dextran (final concentration 1.4% dextran) and then allowed to settle for 60 minutes, after which time the leukocyte rich plasma was collected and layered onto 5 mL of Ficoll-Paque PLUS in 15 ml, conical tubes. The plasma was centrifuged at 1800 rpm for 20 minutes at room temperature. The residual erythrocytes were lysed utilizing a hypotonic saline and the remaining neutrophils were re-suspended in Hank's balanced salt solution containing 20 mM HEPES and 8.9 mM sodium bicarbonate without calcium or magnesium (HBSS), yielding neutrophils that were greater than 98% pure and greater than 99% viable.
Neutrophil migration assay was performed according to the method described by Frevert C W, Wong V A, Goodman R B, Goodwin R, and Martin T R., Rapid fluorescence-based measurement of neutrophil migration in vitro, J. Immunol. Methods, 213:41-52, 1998. Human neutrophils were labeled with the fluorescent dye calcein for 30 minutes at room temperature. Cells were then washed and resuspended in a migration buffer containing HBSS with 2% FCS. Cells were treated with buffer alone or with the indicated test peptide (50 μM) for 30 minutes at 37° C. Treated cells (1×10^4 cells) were then placed on the upper side of a ChemoTx® chemotaxis plate (Neuroprobe, Gaithersburg, Md.) membrane (2 μm pore size). Lower wells of the plate were filled with migration buffer alone or with buffer containing fMLP (100 nM), LTB4 (100 nM), or PAF (100 nM). Wells containing 1×10^4 labeled cells were used as standards to calculate migration percentage. Cells were allowed to migrate for 1 hour at 37° C. After incubation, cells on the top of the filter were washed away with PBS. Followed by this, 0.5 mM EDTA was added to the top of the filter for 5 min to detach adherent cells and the membrane was again washed. The plate was then centrifuged at 1000 rpm for 1 min. The filter was removed and the fluorescence was measured in the lower wells (485 nm excitation, 530 nm emission wavelength) using an fMax fluorescence plate reader (Molecular Devices, Sunnyvale, Calif.). Percent migration was determined by dividing the fluorescence of each well by the fluorescence of the standard wells containing 1×10^4 labeled cells. A lesser number of migrated neutrophils in the bottom compartment is indicative of the test peptide being an inhibitor of inflammation.

MARCKS = MARCKS phosphorylation in NHBE cells (radiolabeled immunoprecipitation assay); assay type: cell-based, human
Description: NHBE cells were labeled with [^32 P]orthophosphate and then exposed to the reagents: (a) Rp-8-Br-PET-cGMP (100 μM); (b) okadaic acid (500 nM); (c) 8-Br-cGMP (1 μM); and (d) PMA (100 nM). MARCKS phosphorylation in response to the treatments was evaluated by immunoprecipitation assay.
To reveal molecular events by which MARCKS links kinase activation to mucin secretion, phosphorylation of MARCKS in response to PKC/PKG activation was investigated in depth, and results are presented as Results-I-4A. […] Once phosphorylated, MARCKS was translocated from the plasma membrane to the cytoplasm. More specifically, the activation of PKC results in MARCKS phosphorylation in NHBE cells. Cells were labeled with [^32 P]orthophosphate for 2 h and then exposed to the stimulatory and/or inhibitory reagents (see below). MARCKS phosphorylation in response to the treatments was evaluated by immunoprecipitation with the following specifics, designated Results-I-4A:
[^32P]phosphate, cells were preincubated for 2 h in phosphate-free Dulbecco's modified Eagle's medium containing 0.2% bovine serum albumin and then labeled with 0.1 mCi/ml [^32 P]orthophosphate (9000 Ci/mmol, PerkinElmer Life Sciences) for 2 h. For labeling with [^3H]myristic acid or ^3H-amino acids, cells were incubated overnight in medium containing 50 μCi/ml [^3H]myristic acid (49 Ci/mmol, PerkinElmer Life Sciences) or 0.2 mCi/ml [^3H]leucine (159 Ci/mmol, PerkinElmer Life Sciences) plus 0.4 mCi/ml [^3H]proline (100 Ci/mmol, PerkinElmer Life Sciences). Following labeling, cells were exposed to stimulatory reagents for 5 min. When an inhibitor was used, cells were preincubated with the inhibitor for 15 min prior to stimulation. At the end of the treatments, cells were lysed in a buffer containing 50 mM Tris-HCl (pH 7.5), 150 mM NaCl, 1 mM EDTA, 10% glycerol, 1% Nonidet P-40, 1 mM phenylmethylsulfonyl fluoride, 1 mM benzamidine, 10 μg/ml pepstatin A, and 10 μg/ml leupeptin. Trichloroacetic acid precipitation and scintillation counting may determine the radiolabeling efficiency in each culture. Immunoprecipitation of MARCKS protein was carried out according to the method of Spizz and Blackshear using cell lysates containing equal counts/min. Spizz et al., J. Biol. Chem. 271, 553-562 (1996). Precipitated proteins were resolved by 8% SDS-polyacrylamide gel electrophoresis and visualized by autoradiography. Anti-human MARCKS antibody (2F12) and nonimmune control antibody (6F6) were used in this assay.
Phosphorylation of MARCKS by PMA was attenuated by Calphostin C (500 nM). NHBE cells also contained substantial amounts of cGMP-dependent protein kinase type 1α (PKG-1α) activity, which was localized to the cytosolic fraction. […] In addition, the phosphorylation of MARCKS induced by PMA was reversed by incubation with 8-Br-cGMP (10 μM).

[3] = inhibitor 500 nM, 15 min preincubation, then UTP 100 μM 2 h

CCCCCCOC(=O)[C@]1(O)C[C@@H]2O[C@@]1(C)n1c3ccccc3c3c4c(c5c6ccccc6n2c5c31)C(=O)NC4 [KT5720]
Mucin secretion as percent of control (NHBE cells [1]; [3]): 157% and 160% | Mucin secretion as % of control (NHBE cells [2]): did not affect

O=C1C(Nc2ccccc2)=CC(=O)c2ncccc21 [LY83583]
Mucin secretion as percent of control (NHBE cells [1]; inhibitor 50 μM, 15 min preincubation, then UTP 100 μM 2 h): 111% and 112%

CCCCCCCCCCCCCC(=O)NCC(=O)N[C@@H](C)C(=O)N[C@@H](CCC(N)=O)C(=O)N[C@@H](Cc1ccccc1)C(=O)N[C@@H](CO)C(=O)N[C@@H](CCCCN)C(=O)N[C@H](C(=O)N[C@@H](C)C(=O)O)[C@@H](C)O [SEQ ID NO: 17, N-myristoyl-GAQFSKTA] (Myristoyl-GAQFSKTA-OH; C-terminus assumed)
Neutrophil Migration (% Inhibition), fMLP (human neutrophils): 92.2%

O=c1ccn([C@@H]2O[C@H](COP(=O)(O)OP(=O)(O)OP(=O)(O)O)[C@@H](O)[C@H]2O)c(=O)[nH]1 [UTP, uridine 5′-triphosphate]
activity at 100 µM (NHBE cells [1]; 0.75 h, 0.1 mM UTP 45 min, no peptide (Results-M-2), read-out: Mucin secretion, % of control levels): 159% | activity at 100 µM (NHBE cells [1]; 2 h, UTP 100 μM (0.1 mM) 2 h, no inhibitor, read-out: Mucin secretion as percent of control): 159% | Mucin secretion as percent of control (NHBE cells [1]; UTP 100 μM (0.1 mM) 2 h, no inhibitor): 156% and 161% and 152%

Calphostin C
MARCKS phosphorylation (band in immunoprecipitation assay) (MARCKS; inhibitor 500 nM + 100 nM PMA): attenuated | MARCKS phosphorylation (band in immunoprecipitation assay) (MARCKS; inhibitor 500 nM alone): dark band | Mucin secretion as percent of control (NHBE cells [1]; [3]): 120% | Mucin secretion as percent of control (NHBE cells [1]; inhibitor 500 nM, 15 min preincubation, then UTP 100 μM 2 h, listed as calphostin C): 121%
